Where “and” joins values, the source holds several entries; their conditions need not be identical. Identical values can stand only once.
Assays:
[1] = target: human STING protein (140-379), WT (Homo sapiens, UniProt Q86WV6, H232R); assay: Radiometric filtration binding competition assay (FBA), hSTING-WT; details: WT-hSWAT IC50 (μM), WT_FBA_HIS-SUMO-hSWAT; wild-type human STING; competition with [H3] 2′3′cGAMP
[2] = target: hSTING-R232 (aa140-379) (Homo sapiens, UniProt Q86WV6, H232R); assay: STING differential scanning fluorimetry (DSF) assay, hSTING WT; details: shift in melting temperature apo vs ligand-bound
Experimental: A STING DSF assay was performed to determine protein thermostability shift in response to small molecule ligand binding. A STING thermnostability shift assay based on differential scanning fluorimetry was used to measure (1) the net shift in melting temperature (ΔTm) between the apo and ligand-bound states of the STING protein and (2) the concentration of the thermal denaturation transition (EC50) as a surrogate measure of binding affinity (Kd). […] Protein in assay buffer was transferred to a 384 well plate and incubated with the hydrophobic fluorescent dye SYBR Orange. A temperature ramp was applied to the plate and the resulting dye fluorescence was plotted as a function of temperature. The first derivative of this function (dF/dT) was then used to extrapolate the melting temperature of the protein at various concentrations of compound and determine the thermal denaturation profile of a protein/compound complex.
5 μM purified Target STING Protein • 3. 8 μM Sypro Orange Dye • 4. Buffer: 100 mM NaCl, 30 mM HEPES, pH 7.5 • 5. Thermal Ramp: 0.5° C./min • 6. <1% DMSO • 7. 11 point, 2 fold dilution, duplicate, 300 μM high concentrations • 8.

[3] = system: STING protein; IRF/IFN signaling in THP-1 R232 cells; assay: Cell based reporter assay, THP-1 R232 IRF-luc; details: Homo sapiens, THP1-dual-KI R232 cells, IRF luciferase reporter; for Emax: maximum measured activity, read-out: THP 1-dual-KI R232_IRF(Luciferase)_Activity Maximum measured (%); for IC50: read-out: THP 1-dual-KI R232_IRF(Luciferase) IC50
Source text: Cell reporter assays were developed to measure the ability of compounds of the application to activate the STING protein and activate both IRF/IFN and the NFkB signaling pathways in the myeloid derived cell line THP-1, which is commercially available from several suppliers. Briefly, THP-1 monocytes were transfected and selected for stable integration of 2 reporter constructs. Clones incorporating stably integrated vectors were further selected by antibiotic resistance to blastocidin and zeocin. The reporter constructs included: (1) firefly luciferase reporter gene under the control of an ISG54 promoter fused to five interferon (IFN)-stimulated response elements to measure IRF transcription factor binding activity and (2) secreted embryonic alkaline phosphatase reporter gene under transcription control of an IFN-beta minimal promoter fused to 5 copies of the NFkB consensus transcriptional response element and 3 copies of the c-Rel binding site.
The resulting THP-1 cell line was further modified to incorporate 3 amino acid point mutations (H71R A230G Q293R). This modification of the native TMEM173 gene in THP-1 cells (HAQ) was designed to produce a cell reporter that expressed the most common allelic variant in the human population (THP-1 R232, available from InvivoGen). Alternatively, the TMEM173 gene was knocked out to provide a congenic control to counter-screen for compound activation that was independent of the STING protein (THP-1 STING KO).
Once cell lines were established, reporter assay protocols were developed and optimized to screen small molecule compounds for agonist activity. Assay optimization for efficacy and Z′ value included titration of the following parameters:
• 1. Cell pre-activation with PMA • 2. Cell seeding density • 3. DMSO tolerance • 4. Media selection • 5. FBS concentration • 6. Incubation time • 7. Co-Assessment of cell viability by CTG assay • 8. Appropriate HPE and ZPE controls • 9. Dose Response Titration
• 1. No pre-activation with PMA • 2. 5×10^4 cells/well in 96 well plate format • 3. <0.5% DMSO • 4. RPMI 1640+2.5 mg/ml glucose • 5. 10% FBS • 6. 14-18 hr incubation • 7. Cell Titer Glo reagent (Promega) following supernatant removal • 8. […] 8 point, 2 fold, duplicate starting at 150 μM

Chain of hSTING-R232 (aa140-379) (Q86WV6 140-379 H232R): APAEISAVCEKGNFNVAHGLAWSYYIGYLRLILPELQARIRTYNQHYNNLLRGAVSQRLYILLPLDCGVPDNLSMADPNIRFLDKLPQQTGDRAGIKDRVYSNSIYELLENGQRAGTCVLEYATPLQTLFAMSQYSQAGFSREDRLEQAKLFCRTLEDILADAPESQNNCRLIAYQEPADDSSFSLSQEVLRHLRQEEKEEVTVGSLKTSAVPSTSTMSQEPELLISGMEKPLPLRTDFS
Chain of human STING protein (140-379), WT (Q86WV6 140-379 H232R): as above

SMILES	IC50 [1]	WT_DSF_hSWAT Tm Shift (° C.) [2]	Emax [3] [%]	IC50 [3] [µM]
C=C(C)c1ccc2c(=O)c3ccc(Cl)c(N(C)C)c3n(CC(=O)O)c2c1 [Compound 24]	< 20 µM	D (“D” >7° C.)	> 50	< 50
CN(C)c1c(Cl)ccc2c(=O)c3ccc(C4=CCN(C(=O)OC(C)(C)C)C4)cc3n(CC(=O)O)c12 [Compound 25]	< 20 µM	D (“D” >7° C.)	> 50	< 50
CN(C)c1c(Cl)ccc2c(=O)c3cc(Br)ccc3n(CC(=O)O)c12 [Compound 29]	> 300 µM	B (“B” = 0-2° C.)	> 50	< 50
CN(C)c1c(Cl)ccc2c(=O)c3cc(-c4ccccc4)ccc3n(CC(=O)O)c12 [Compound 30]	< 20 µM	D (“D” >7° C.)	25 to 50	< 50
Cc1ccc2c(c1)c(=O)c1ccc(Cl)c(N(C)C)c1n2CC(=O)O [Compound 31]	100 to 300 µM and 20 to 100 µM	C (“C” = 2-7° C.)	> 50	50 to 100
Cc1cc2c(cc1Br)c(=O)c1ccc(Cl)c(N(C)C)c1n2CC(=O)O [Compound 34]	20 to 100 µM	C (“C” = 2-7° C.)	5 to 25	< 50
CN(C)c1c(Cl)ccc2c(=O)c3ccc(C4CCC4)cc3n(CC(=O)O)c12 [Compound 35]	< 20 µM	D (“D” >7° C.)	> 50	< 50
CN(C)c1c(Cl)ccc2c(=O)c3ccc(C4CC4)cc3n(CC(=O)O)c12 [Compound 36]	< 20 µM	D (“D” >7° C.)	> 50	< 50
CCc1ccc2c(=O)c3ccc(Cl)c(N(C)C)c3n(CC(=O)O)c2c1 [Compound 37]	< 20 µM	D (“D” >7° C.)	> 50	< 50
Cc1ccc2c(=O)c3ccc(C(C)(C)C)cc3n(CC(=O)O)c2c1N(C)C [Compound 39]	< 20 µM	D (“D” >7° C.)	> 50	< 50
Cc1ccc2c(=O)c3ccc(Cl)c(C(C)C)c3n(CC(=O)O)c2c1 [Compound 46]	> 300 µM	D (“D” >7° C.)	5 to 25	> 150
C=C(C)c1c(Cl)ccc2c(=O)c3ccc(C)cc3n(CC(=O)O)c12 [Compound 47]	< 20 µM	D (“D” >7° C.)	> 50	< 50
Cc1ccc2c(=O)c3c(O)cc(Cl)c(N(C)C)c3n(CC(=O)O)c2c1 [Compound 51]	20 to 100 µM	D (“D” >7° C.)	> 50	100 to 150
CN(C)c1c(Cl)ccc2c(=O)c3ccc(C(C)(C)C#N)cc3n(CC(=O)O)c12 [Compound 52]	< 20 µM	D (“D” >7° C.)	> 50	< 50
COc1c(Cl)ccc2c(=O)c3ccc(C4CCN(C)CC4)cc3n(CC(=O)O)c12 [Compound 53]	100 to 300 µM	C (“C” = 2-7° C.)	5 to 25	> 150
COc1c(Cl)ccc2c(=O)c3ccc(C4=CCN(C)CC4)cc3n(CC(=O)O)c12 [Compound 54]	> 300 µM	C (“C” = 2-7° C.)	5 to 25	> 150
Cc1ccc2c(=O)c3ccc(Cl)c(N(C)C)c3n(CC(=O)NS(C)(=O)=O)c2c1 [Compound 55]	20 to 100 µM	D (“D” >7° C.)	> 50	< 50
CN(C)c1c(Cl)ccc2c(=O)c3ccc(-c4ccco4)cc3n(CC(=O)NS(C)(=O)=O)c12 [Compound 56]	< 20 µM	D (“D” >7° C.)		> 150
CC(C)c1ccc2c(=O)c3ccc(Cl)c(N(C)C)c3n(CC(=O)O)c2c1 [Compound 58]	< 20 µM	D (“D” >7° C.)	> 50	< 50

SMILES	IC50 [1]	WT_DSF_hSWAT Tm Shift (° C.) [2]	Emax [3] [%]	IC50 [3] [µM]
COCCOc1cccc2c(=O)c3ccc(Cl)c(OC)c3n(CC(=O)O)c12 [Compound 60]	> 300 µM	B (“B” = 0-2° C.)	5 to 25	> 150
COc1c(Cl)ccc2c(=O)c3cccc(OCCO)c3n(CC(=O)O)c12 [Compound 61]	> 300 µM	B (“B” = 0-2° C.)	5 to 25	> 150
O=C(O)Cn1c2ccccc2c(=O)c2ccc(Cl)c(O)c21 [Compound 63]	20 to 100 µM	B (“B” = 0-2° C.)	< 5	> 150
C=C(C)c1ccc2c(=O)c3ccc(Cl)c(OC)c3n(CC(=O)O)c2c1 [Compound 65]	20 to 100 µM	D (“D” >7° C.)	> 50	< 50
COc1c(Cl)ccc2c(=O)c3ccc(F)cc3n(CC(=O)O)c12 [Compound 67]	> 300 µM	C (“C” = 2-7° C.)		> 150
CCNc1ccc2c(=O)c3ccc(Cl)c(OC)c3n(CC(=O)O)c2c1 [Compound 68]	20 to 100 µM	C (“C” = 2-7° C.)	> 50	50 to 100
CN(C)c1c(Cl)ccc2c(=O)c3ccc(-c4cc[nH]c(=O)c4)cc3n(CC(=O)O)c12 [Compound 69]	< 20 µM	D (“D” >7° C.)	> 50	< 50
CN(C)c1c(Cl)ccc2c(=O)c3ccc(-c4cnccn4)cc3n(CC(=O)O)c12 [Compound 70]	< 20 µM	C (“C” = 2-7° C.)	> 50	< 50
CN(C)c1c(Cl)ccc2c(=O)c3ccc(-c4ccnnc4)cc3n(CC(=O)O)c12 [Compound 71]	20 to 100 µM	D (“D” >7° C.)	> 50	< 50
CN(C)c1c(Cl)ccc2c(=O)c3cc(Cl)c(Nc4c(F)cccc4F)cc3n(CC(=O)O)c12 [Compound 75]	< 20 µM	D (“D” >7° C.)	> 50	< 50
CN(C)c1c(Cl)ccc2c1N(CC(=O)O)c1cc(Nc3ccccc3F)ccc1N2C [Compound 78]	< 20 µM	D (“D” >7° C.)	> 50	< 50
CN(C)c1c(Cl)ccc2c(=O)c3ccc(Nc4cccnc4)cc3n(CC(=O)O)c12 [Compound 80]	< 20 µM	D (“D” >7° C.)	> 50	< 50
CN(C)c1c(Cl)ccc2c(=O)c3ccc(Nc4ccncc4)cc3n(CC(=O)O)c12 [Compound 81]	< 20 µM	D (“D” >7° C.)	> 50	< 50
CN(C)c1c(Cl)ccc2c(=O)c3ccc(C4(C#N)CC4)cc3n(CC(=O)O)c12 [Compound 84]	20 to 100 µM	D (“D” >7° C.)	> 50	< 50
CC(C)Nc1cc2c(cc1Cl)c(=O)c1ccc(Cl)c(N(C)C)c1n2CC(=O)O [Compound 86]	< 20 µM	D (“D” >7° C.)	> 50	< 50
CN(C)c1c(Cl)ccc2c(=O)c3cc(Cl)c(C(C)(C)C#N)cc3n(CC(=O)O)c12 [Compound 87]	< 20 µM	D (“D” >7° C.)	> 50	< 50
CN(C)c1c(Cl)ccc2c(=O)c3cc(Cl)c(C(C)(C)C)cc3n(CC(=O)O)c12 [Compound 88]	< 20 µM	D (“D” >7° C.)	> 50	< 50
C=Cc1cc2c(cc1Cl)c(=O)c1ccc(Cl)c(N(C)C)c1n2CC(=O)O [Compound 89]	< 20 µM	D (“D” >7° C.)	> 50	< 50

From US20220227761A1, “OXOACRIDINYL ACETIC ACID DERIVATIVES AND METHODS OF USE” (STINGTHERA, INC., priority 2019, published 2022)
